Results reported in ChEMBL document CHEMBL1148720, “Extensive SAR and computational studies of 3-{4-[(benzylmethylamino)methyl]phenyl}-6,7-dimethoxy-2H-2-chromenone (AP2238) derivatives” (J Med Chem, 2007).

Assays:
[1] = target: T1, Acetylcholinesterase (Homo sapiens, UniProt P22303); assay: Inhibition of human recombinant AChE
[2] = target: T1, Acetylcholinesterase; assay: Inhibition of human AChE-mediated beta amyloid 1-40 aggregation at 100 uM
[3] = target: Cholinesterase (Homo sapiens, UniProt P06276); assay: Inhibition of human recombinant BChE
Cholinesterase, sequence (P06276 whole entry): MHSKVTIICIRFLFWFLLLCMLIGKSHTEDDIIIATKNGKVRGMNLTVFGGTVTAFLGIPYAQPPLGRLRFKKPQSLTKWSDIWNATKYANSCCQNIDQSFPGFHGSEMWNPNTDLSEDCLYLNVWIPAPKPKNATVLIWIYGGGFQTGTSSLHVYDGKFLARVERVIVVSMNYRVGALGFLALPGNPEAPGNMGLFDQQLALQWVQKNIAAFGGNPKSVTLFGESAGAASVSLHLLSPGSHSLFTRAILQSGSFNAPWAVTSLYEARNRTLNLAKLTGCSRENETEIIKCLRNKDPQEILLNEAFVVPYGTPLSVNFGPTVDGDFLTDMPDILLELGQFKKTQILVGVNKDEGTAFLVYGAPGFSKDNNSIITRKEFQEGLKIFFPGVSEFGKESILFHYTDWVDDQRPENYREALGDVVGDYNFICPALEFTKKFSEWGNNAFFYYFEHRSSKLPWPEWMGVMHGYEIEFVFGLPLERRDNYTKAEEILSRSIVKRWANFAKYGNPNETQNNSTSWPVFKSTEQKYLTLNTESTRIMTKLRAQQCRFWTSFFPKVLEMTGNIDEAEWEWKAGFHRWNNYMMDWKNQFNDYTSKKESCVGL

T1 sequence (P22303 whole entry): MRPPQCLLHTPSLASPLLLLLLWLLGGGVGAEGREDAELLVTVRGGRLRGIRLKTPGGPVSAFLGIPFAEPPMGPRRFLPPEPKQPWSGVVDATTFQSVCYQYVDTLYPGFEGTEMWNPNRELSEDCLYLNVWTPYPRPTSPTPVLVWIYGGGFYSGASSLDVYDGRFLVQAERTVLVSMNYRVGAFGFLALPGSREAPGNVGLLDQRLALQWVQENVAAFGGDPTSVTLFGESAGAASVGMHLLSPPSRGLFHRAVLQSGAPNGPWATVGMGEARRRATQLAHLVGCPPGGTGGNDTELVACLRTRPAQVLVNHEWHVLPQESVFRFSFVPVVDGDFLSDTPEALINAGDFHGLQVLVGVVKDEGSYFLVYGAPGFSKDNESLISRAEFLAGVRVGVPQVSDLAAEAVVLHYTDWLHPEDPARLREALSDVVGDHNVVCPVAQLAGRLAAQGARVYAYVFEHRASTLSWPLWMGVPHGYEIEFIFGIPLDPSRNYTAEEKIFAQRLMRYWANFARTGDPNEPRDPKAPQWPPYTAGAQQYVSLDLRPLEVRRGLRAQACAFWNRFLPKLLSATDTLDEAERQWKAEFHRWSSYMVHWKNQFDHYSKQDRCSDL

Compound	IC50 [1]	inhibition [2]	IC50 [3]
COc1cc2cc(-c3ccc(CN(C)Cc4cccc([N+](=O)[O-])c4)cc3)c(=O)oc2cc1OC	0.368 µM		
COc1ccc(CN(C)Cc2ccc(-c3cc4cc(OC)c(OC)cc4oc3=O)cc2)cc1	2.26 µM		
COc1cc2cc(-c3ccc(CN(C)Cc4ccc(C)cc4)cc3)c(=O)oc2cc1OC	0.31 µM		
COc1ccc2c(=O)cc(-c3ccc(CN(C)Cc4ccccc4)cc3)oc2c1	80.5 µM		
CN(Cc1ccccc1)Cc1ccc(-c2cc3cc(N)ccc3oc2=O)cc1	0.281 µM	< 5%	
COc1ccc2oc(=O)c(-c3ccc(CN(C)Cc4ccccc4)cc3)cc2c1	0.163 µM	< 5%	1300 µM
COc1cc2cc(-c3ccc(CN(C)Cc4ccccc4[N+](=O)[O-])cc3)c(=O)oc2cc1OC	0.987 µM		
COc1ccc2oc(=O)c(-c3cccc(CN(C)Cc4ccccc4)c3)cc2c1	0.303 µM		136 µM
COc1cc2cc(-c3cccc(CN(C)Cc4ccccc4)c3)c(=O)oc2cc1OC	0.202 µM	25%	279 µM
COc1ccccc1CN(C)Cc1ccc(-c2cc3cc(OC)c(OC)cc3oc2=O)cc1	0.0621 µM	15%	52.9 µM
COc1cc2cc(-c3ccc(CN(C)Cc4ccccc4)cc3)c(=O)oc2cc1OC		35%	
COc1cc2occ(-c3ccc(CN(C)Cc4ccccc4)cc3)c(=O)c2cc1OC	1.23 µM		
COc1cc2cc(-c3ccc(C[N+](C)(C)Cc4ccccc4)cc3)c(=O)oc2cc1OC	0.0105 µM		43.8 µM
COc1cc2cc(-c3ccc(CN(C)Cc4ccccc4C)cc3)c(=O)oc2cc1OC	0.366 µM		
COc1cc2oc3cc(CN(C)Cc4ccccc4)ccc3c(=O)c2cc1OC	30.3 µM		
CN(Cc1ccccc1)Cc1ccc(-c2cc3cc([N+](=O)[O-])ccc3oc2=O)cc1	0.148 µM	< 5%	
COc1ccc2oc(-c3ccc(CN(C)Cc4ccccc4)cc3)cc(=O)c2c1	18.1 µM		88.9 µM
COc1ccc2cc(-c3cccc(CN(C)Cc4ccccc4)c3)c(=O)oc2c1	2.29 µM		
COc1cccc(CN(C)Cc2ccc(-c3cc4cc(OC)c(OC)cc4oc3=O)cc2)c1	0.714 µM		
COc1cc2oc(-c3cccc(CN(C)Cc4ccccc4)c3)cc(=O)c2cc1OC	2.27 µM		
COc1cc2occ(-c3cccc(CN(C)Cc4ccccc4)c3)c(=O)c2cc1OC	2.02 µM		
COc1cc2cc(-c3ccc(CN(CCO)Cc4ccccc4)cc3)c(=O)oc2cc1OC	0.0493 µM	6%	35.1 µM
CCN(Cc1ccccc1)Cc1ccc(-c2cc3cc(OC)c(OC)cc3oc2=O)cc1	0.0183 µM	38%	
COc1ccc2cc(-c3ccc(CN(C)Cc4ccccc4)cc3)c(=O)oc2c1	0.892 µM	< 5%	570 µM
CCN(Cc1ccccc1)Cc1cccc(-c2coc3cc(OC)c(OC)cc3c2=O)c1	1.59 µM		
COc1cc2cc(-c3ccc(CN(C)Cc4cccc(C)c4)cc3)c(=O)oc2cc1OC	0.122 µM		
